Data set [1] is described as follows: PK in rats. Also on record: T½ / MRT: unit not given here. Type of data set: in vivo. The conditions noted are these: Rat. The method, then: Lean male Sprague Dawley rats (RJHan:SD) were obtained from JanVier (JanVier Labs, France) at 7 weeks of age. The animals were pair housed until randomization under a 12/12 h dark-light cycle, light off at 3 PM. Room temperature was controlled to 22°C ± 1°C, with 60 % ± 20% humidity.
Animals had ad libitum access to regular rodent chow (Altromin 1324, Brogaarden, Denmark) and tap water.
After 2 weeks of acclimatization, the animals were single housed and randomized into treatment groups (n = 3 per group) based on body weight on study day -3. On study day 1, animals were dosed 50 nmol/kg IV and SC in combination of two peptides. Plasma samples were collected for PK analysis at times 0.17, 1, 3, 6, 24, 30, 48, 72 and 96 hours post dosing. Plasma samples were analyzed using LC-MSMS and PK parameters were estimated by Non-Compartmental Analysis (NCA).

Data set [2] in a line: Chemical stability of purified peptides (RP-UHPLC main peak purity loss). Type of data set: physicochemical. Summed up:
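Purity loss is the drop in RP-UHPLC main-peak area fraction (215 nm detection, C8 column at 50 °C) from time zero to day 14 and/or day 28 at 40 °C. Samples held roughly 1.0 mg/ml peptide in 50 mM phosphate, pH 7.5, with other pH targets also tested.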

The conditions of data set [3]: pH 7.5.
Procedure: Solubility was tested in the following vehicles: 100 mM phosphate buffer facilitating a target pH of 6.5, 7.0, and 7.5. Samples were directly dissolved in Mini-UniPrep Syringeless Filter 0.45 µm unit (Whatman). For the desired concentration, such as a concentration of 4000 µM (approximately 20 mg/mL), 1600 nmol peptide was dissolved in 400 µL vehicle. Samples were incubated for at least 1 h at room temperature on a rocking table. The pH was measured and adjusted. Samples were left on the rocking table for an additional hour before a second pH measurement and adjustment. Visual inspection was performed and noted before the filter was pushed. The concentration of peptide in the filtrate was determined using CAD (Charged Aerosol Detection), double determination was done for each sample. The measured concentration was reported in µM. Furthermore, the pH of the filtrate was measured and reported. Peptides with a measured concentration within +/-20% of target concentration are considered fully soluble.
Compounds were dissolved to a nominal concentration of 4000 µM and analysed as described above. Samples with phenol contained 5.0 mg/ml phenol.
Data set [4] is described as follows: Thioflavin T fibril formation assay of purified peptides. Also on record: key: Amyloid fibril formation detected by an increase in ThT fluorescence was denoted with "Yes"; samples without increasing ThT fluorescence hence not forming amyloid fibrils were denoted "No". The format is physicochemical. Summed up: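 Fibril formation read as rising ThT emission at 480 nm (450 nm excitation), 4 µM ThT, over 96 h at 40°C with alternating 5-min rest and 700 rpm shaking cycles, in triplicate. Samples were 200 µM compound in 50 mM phosphate at various pH values, or co-formulated at 200 µM in semaglutide product at pH 7.4.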

[5] abbreviates: pH 7.5, 40°C, 14 days, first value of cell.
Setting [6] is: pH 7.5, 40°C, 28 days, second value of cell.

Molecules are shown by their SMILES. Starred links: 1 amine or outer side, 2 acyl side, 3 side chain; linkers in the order of their positions; H or OH if unused. Non-standard residues stand in square brackets, D forms with d. Residues, ends and D or L forms follow the SMILES beside them. Groups on a side chain read outwards from the residue. *: point of attachment. C20 diacid = O=C(O)CCCCCCCCCCCCCCCCCCC(=O)*; γGlu = O=C(O)[C@H](CCC(=O)[*:2])N[*:1]; NMeI = CC[C@H](C)[C@H](NC)C(=O)O; Nle = CCCC[C@H](N)C(=O)O; AEEA = NCCOCCOCC(=O)O; Aib = CC(C)(N)C(=O)O

As to `CC[C@H](C)[C@H](N)C(=O)N[C@H](C(=O)N[C@@H](CC(C)C)C(=O)N[C@@H](CO)C(=O)N[C@@H](CC(C)C)C(=O)N[C@@H](CC(=O)O)C(=O)N[C@H](C(=O)N1CCC[C@H]1C(=O)N[C@H](C(=O)NCC(=O)N[C@@H](CC(C)C)C(=O)N[C@@H](CC(C)C)C(=O)N[C@@H](CCC(N)=O)C(=O)N[C@H](C(=O)N[C@@H](CC(C)C)C(=O)N[C@@H](CC(C)C)C(=O)N[C@@H](CCC(=O)O)C(=O)N[C@@H](CCC(N)=O)C(=O)N[C@@H](C)C(=O)N[C@@H](CCCNC(=N)N)C(=O)N[C@@H](C)C(=O)N[C@@H](CCCNC(=N)N)C(=O)N[C@@H](C)C(=O)N[C@@H](C)C(=O)N[C@@H](CCCNC(=N)N)C(=O)N[C@@H](CCC(=O)O)C(=O)N[C@@H](CCC(N)=O)C(=O)N[C@@H](C)C(=O)N[C@@H](CCCCNC(=O)COCCOCCNC(=O)COCCOCCNC(=O)CC[C@H](NC(=O)CC[C@H](NC(=O)CCCCCCCCCCCCCCCCCCC(=O)O)C(=O)O)C(=O)O)C(=O)N[C@@H](CCC(=O)O)C(=O)N[C@@H](CC(N)=O)C(=O)N[C@@H](C)C(=O)N[C@@H](CCC(=O)O)C(=O)N[C@H](C(=O)N[C@@H](CC(C)C)C(=O)N[C@@H](C)C(=O)N[C@@H](CCC(=O)O)C(=O)N[C@H](C(N)=O)C(C)C)[C@@H](C)CC)[C@@H](C)CC)[C@@H](C)CC)C(C)C)C(C)C` [SEQ ID NO: 17] (H-IVLSLDVPIGLLQILLEQARARAAREQAK([AEEA-AEEA-γGlu-γGlu-C20 diacid])ENAEILAEV-NH2), in data set [1], the MRT came to 7.6 and the T½ worked out at 7.1. In data set [2] (setting [5]), the “Chemical stability at pH 7.5 after 14 days at 40°C (% degradation)” value was -1.6%. Besides, the “Chemical stability at pH 7.5 after 28 days at 40°C (% degradation)” value in data set [2] (setting [6]) was -2.6%. For the same molecule, the “Solubility pH 7.5, target conc. =10 mg/mL (measured mg/mL)” value in data set [3] turned out to be 9.2 mg/mL. The “Fibrillation (pH 7.5)” value in data set [4] (pH 7.5, ThT assay) is listed as “No”.
In the case of `CC[C@H](C)[C@H](N)C(=O)N[C@H](C(=O)N[C@@H](CC(C)C)C(=O)N[C@@H](CO)C(=O)N[C@@H](CC(C)C)C(=O)N[C@@H](CC(=O)O)C(=O)N[C@H](C(=O)N1CCC[C@H]1C(=O)N[C@H](C(=O)NCC(=O)N[C@@H](CC(C)C)C(=O)N[C@@H](CC(C)C)C(=O)N[C@@H](CCC(N)=O)C(=O)N[C@H](C(=O)N[C@@H](CC(C)C)C(=O)N[C@@H](CC(C)C)C(=O)N[C@@H](CCC(=O)O)C(=O)N[C@@H](CCC(N)=O)C(=O)N[C@@H](C)C(=O)N[C@@H](CCCNC(=N)N)C(=O)N[C@@H](C)C(=O)N[C@@H](CCCNC(=N)N)C(=O)N[C@@H](C)C(=O)N[C@@H](C)C(=O)N[C@@H](CCCNC(=N)N)C(=O)N[C@@H](CCC(=O)O)C(=O)N[C@@H](CCC(N)=O)C(=O)N[C@@H](C)C(=O)N[C@@H](CCCCNC(=O)COCCOCCNC(=O)COCCOCCNC(=O)CC[C@H](NC(=O)CC[C@H](NC(=O)CCCCCCCCCCCCCCCCCCC(=O)O)C(=O)O)C(=O)O)C(=O)NC(C)(C)C(=O)N[C@@H](CC(N)=O)C(=O)N[C@@H](C)C(=O)N[C@@H](CCC(=O)O)C(=O)N[C@H](C(=O)N[C@@H](CC(C)C)C(=O)N[C@@H](C)C(=O)N[C@@H](CCC(=O)O)C(=O)N[C@H](C(N)=O)C(C)C)[C@@H](C)CC)[C@@H](C)CC)[C@@H](C)CC)C(C)C)C(C)C` [SEQ ID NO: 19] (H-IVLSLDVPIGLLQILLEQARARAAREQAK([AEEA-AEEA-γGlu-γGlu-C20 diacid])[Aib]NAEILAEV-NH2), in data set [1], the MRT came to 7.4 and the T½ was 5.9. Also, the “Chemical stability at pH 7.5 after 14 days at 40°C (% degradation)” value in data set [2] (setting [5]) was -1.5%. Also, the “Chemical stability at pH 7.5 after 28 days at 40°C (% degradation)” value in data set [2] (setting [6]) was -2.6%. Also, the “Solubility pH 7.5, target conc. =10 mg/mL (measured mg/mL)” value in data set [3] is given as 9.6 mg/mL. In addition, the “Fibrillation (pH 7.5)” value in data set [4] (pH 7.5, ThT assay) is reported as “No”.
`CCCC[C@H](NC(=O)[C@@H](NC(=O)[C@H](CCC(=O)O)NC(=O)[C@H](C)NC(=O)[C@H](CC(N)=O)NC(=O)C(C)(C)NC(=O)[C@H](CCCCNC(=O)COCCOCCNC(=O)COCCOCCNC(=O)CC[C@H](NC(=O)CC[C@H](NC(=O)CCCCCCCCCCCCCCCCCCC(=O)O)C(=O)O)C(=O)O)NC(=O)[C@H](C)NC(=O)[C@H](CCC(N)=O)NC(=O)[C@H](CCC(=O)O)NC(=O)[C@H](CCCNC(=N)N)NC(=O)[C@H](C)NC(=O)[C@H](C)NC(=O)[C@H](CCCNC(=N)N)NC(=O)[C@H](C)NC(=O)[C@H](CCCNC(=N)N)NC(=O)[C@H](C)NC(=O)[C@H](CCC(N)=O)NC(=O)[C@H](CO)NC(=O)[C@H](CC(C)C)NC(=O)[C@H](CC(C)C)NC(=O)[C@@H](NC(=O)[C@H](CCC(N)=O)NC(=O)[C@H](CC(C)C)NC(=O)[C@H](CC(C)C)NC(=O)CNC(=O)[C@@H](NC(=O)[C@@H]1CCCN1C(=O)[C@@H](NC(=O)[C@H](CC(=O)O)NC(=O)[C@H](CC(C)C)NC(=O)[C@H](CO)NC(=O)[C@H](CC(C)C)NC(=O)[C@@H](NC(=O)[C@@H](N)[C@@H](C)CC)C(C)C)C(C)C)[C@@H](C)CC)[C@@H](C)CC)[C@@H](C)CC)C(=O)N[C@@H](C)C(=O)N[C@@H](CCC(=O)O)C(=O)N[C@H](C(N)=O)C(C)C` [compound 237] (H-IVLSLDVPIGLLQILLSQARARAAREQAK([AEEA-AEEA-γGlu-γGlu-C20 diacid])[Aib]NAEI[Nle]AEV-NH2): in data set [1], the MRT was determined as 5.1 and the T½ was 4.1. In addition, the “Chemical stability at pH 7.5 after 14 days at 40°C (% degradation)” value in data set [2] (pH 7.5, 14 days, 40°C) is reported as -1.1%. The “Chemical stability at pH 7.5 after 28 days at 40°C (% degradation)” value in data set [2] (pH 7.5, 28 days, 40°C) is -2.8%. The “Solubility pH 7.5, target conc. =10 mg/mL (measured mg/mL)” value in data set [3] is 10 mg/mL. Besides, the “Fibrillation (pH 7.5)” value in data set [4] (pH 7.5) is reported as “No”.
For `CCCC[C@H](NC(=O)[C@@H](NC(=O)[C@H](CCC(=O)O)NC(=O)[C@H](C)NC(=O)[C@H](CC(N)=O)NC(=O)[C@H](CCC(=O)O)NC(=O)[C@H](CCCCNC(=O)COCCOCCNC(=O)COCCOCCNC(=O)CC[C@H](NC(=O)CC[C@H](NC(=O)CCCCCCCCCCCCCCCCCCC(=O)O)C(=O)O)C(=O)O)NC(=O)[C@H](C)NC(=O)[C@H](CCC(N)=O)NC(=O)[C@H](CCC(=O)O)NC(=O)[C@H](CCCNC(=N)N)NC(=O)[C@H](C)NC(=O)[C@H](C)NC(=O)[C@H](CCCNC(=N)N)NC(=O)[C@H](C)NC(=O)[C@H](CCCNC(=N)N)NC(=O)[C@H](C)NC(=O)[C@H](CCC(N)=O)NC(=O)[C@H](CO)NC(=O)[C@H](CC(C)C)NC(=O)[C@H](CC(C)C)NC(=O)[C@@H](NC(=O)[C@H](CCC(N)=O)NC(=O)[C@H](CC(C)C)NC(=O)[C@H](CC(C)C)NC(=O)CNC(=O)[C@@H](NC(=O)[C@@H]1CCCN1C(=O)[C@@H](NC(=O)[C@H](CC(=O)O)NC(=O)[C@H](CC(C)C)NC(=O)[C@H](CO)NC(=O)[C@H](CC(C)C)NC(=O)[C@@H](NC(=O)[C@@H](NC)[C@@H](C)CC)C(C)C)C(C)C)[C@@H](C)CC)[C@@H](C)CC)[C@@H](C)CC)C(=O)N[C@@H](C)C(=O)N[C@@H](CCC(=O)O)C(=O)N[C@H](C(N)=O)C(C)C` [compound 101] (H-[NMeI]VLSLDVPIGLLQILLSQARARAAREQAK([AEEA-AEEA-γGlu-γGlu-C20 diacid])ENAEI[Nle]AEV-NH2), in data set [1], the MRT is recorded as 6.8 and the T½ was found to be 6.5. Further, in data set [2] (pH 7.5, 14 days, 40°C), the “Chemical stability at pH 7.5 after 14 days at 40°C (% degradation)” value is recorded as -2.2%. Further, the “Chemical stability at pH 7.5 after 28 days at 40°C (% degradation)” value in data set [2] (pH 7.5, 28 days, 40°C) was -4.3%. The “Solubility pH 7.5, target conc. =10 mg/mL (measured mg/mL)” value in data set [3] amounted to 11 mg/mL. The “Fibrillation (pH 7.5)” value in data set [4] (pH 7.5) is on record as “No”.

(Values after patent EP4810052A2, “HCRHR2 SELECTIVE POLYPEPTIDES” (Gubra A/S, priority 2023, dated 2026).)
